PubChem BioAssay (NCI)
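Following 48 hours of exposure in 96-well plates, responses at five concentrations were used to interpolate endpoints linearly. The concentration for 50% growth inhibition is given as GI50. TGI denotes the concentration required for complete inhibition of growth.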

Legend:
Test in all cases: inhibition of tumour cell growth, NCI panel, 48 h
ACHN renal = test system: ACHN renal
NCI-H226 lung = test system: NCI-H226 lung
NCI/ADR-RES ovarian = test system: NCI/ADR-RES ovarian
HT29 colon = test system: HT29 colon
SNB-19 CNS = test system: SNB-19 CNS
EKVX NSCLC = test system: EKVX NSCLC
LOX IMVI melanoma = test system: LOX IMVI melanoma
SN12C renal = test system: SN12C renal
IGROV1 ovarian = test system: IGROV1 ovarian
HCC-2998 colon = test system: HCC-2998 colon
BT-549 breast = test system: BT-549 breast
UACC-62 melanoma = test system: UACC-62 melanoma
MDA-MB-231 breast = test system: MDA-MB-231 breast
PC-3 prostate = test system: PC-3 prostate
SNB-75 CNS = test system: SNB-75 CNS
NCI-H23 lung = test system: NCI-H23 lung
SF-295 CNS = test system: SF-295 CNS
HOP-62 NSCLC = test system: HOP-62 NSCLC
HL-60(TB) leukemia = test system: HL-60(TB) leukemia
UO-31 renal = test system: UO-31 renal
OVCAR-3 ovarian = test system: OVCAR-3 ovarian
SW-620 colon = test system: SW-620 colon
OVCAR-8 ovarian = test system: OVCAR-8 ovarian
UACC-257 melanoma = test system: UACC-257 melanoma
HS 578T breast = test system: HS 578T breast
TK-10 renal = test system: TK-10 renal
SK-MEL-2 melanoma = test system: SK-MEL-2 melanoma
SF-539 CNS = test system: SF-539 CNS
MALME-3M melanoma = test system: MALME-3M melanoma
SK-MEL-5 melanoma = test system: SK-MEL-5 melanoma
COLO 205 colon = test system: COLO 205 colon
OVCAR-4 ovarian = test system: OVCAR-4 ovarian
DU-145 prostate = test system: DU-145 prostate
KM12 colon = test system: KM12 colon
A498 renal = test system: A498 renal
U251 CNS = test system: U251 CNS
M14 melanoma = test system: M14 melanoma
SK-OV-3 ovarian = test system: SK-OV-3 ovarian
MCF7 breast = test system: MCF7 breast
786-0 renal = test system: 786-0 renal
CCRF-CEM leukemia = test system: CCRF-CEM leukemia
SF-268 CNS = test system: SF-268 CNS
T-47D breast = test system: T-47D breast
NCI-H522 lung = test system: NCI-H522 lung
OVCAR-5 ovarian = test system: OVCAR-5 ovarian
A549 NSCLC = test system: A549 NSCLC
CAKI-1 renal = test system: CAKI-1 renal
HCT-15 colon = test system: HCT-15 colon
K-562 leukemia = test system: K-562 leukemia
SK-MEL-28 melanoma = test system: SK-MEL-28 melanoma
MOLT-4 leukemia = test system: MOLT-4 leukemia
MDA-MB-435 = test system: MDA-MB-435
SR leukemia = test system: SR leukemia
NCI-H460 lung = test system: NCI-H460 lung
HCT-116 colon = test system: HCT-116 colon
RXF 393 renal = test system: RXF 393 renal

With `C(=N\Nc1nnn(Cc2ccccc2)n1)/c1ccccc1` the GI50 (ACHN renal) was 16.1 µM, the TGI (ACHN renal) was over 100 µM and the GI50 (NCI-H226 lung) was 10.4 µM. It also gave a TGI (NCI-H226 lung) of over 100 µM, a GI50 (NCI/ADR-RES ovarian) of 0.545 µM and a TGI (NCI/ADR-RES ovarian) of 8.78 µM. It also gave a GI50 (HT29 colon) of 1.26 µM, a TGI (HT29 colon) of over 100 µM and a GI50 (SNB-19 CNS) of 9.95 µM. It also gave a TGI (SNB-19 CNS) of 64.8 µM, a GI50 (EKVX NSCLC) of 12.3 µM and a TGI (EKVX NSCLC) of over 100 µM. For the same compound, the GI50 (LOX IMVI melanoma) was 6 µM, the TGI (LOX IMVI melanoma) was over 100 µM and the GI50 (SN12C renal) was 9.46 µM. It also gave a TGI (SN12C renal) of over 100 µM, a GI50 (IGROV1 ovarian) of 7.05 µM and a TGI (IGROV1 ovarian) of over 100 µM. For the same compound, the GI50 (HCC-2998 colon) was 5.07 µM, the TGI (HCC-2998 colon) was over 100 µM and the GI50 (BT-549 breast) was 11.5 µM. For the same compound, the TGI (BT-549 breast) was over 100 µM, the GI50 (UACC-62 melanoma) was 2.2 µM and the TGI (UACC-62 melanoma) was over 100 µM. For the same compound, the GI50 (MDA-MB-231 breast) was 7.54 µM, the TGI (MDA-MB-231 breast) was over 79.6 µM and the GI50 (PC-3 prostate) was 6.82 µM. It also gave a TGI (PC-3 prostate) of over 100 µM, a GI50 (SNB-75 CNS) of 3.67 µM and a TGI (SNB-75 CNS) of 36.8 µM. It also gave a GI50 (NCI-H23 lung) of 6.97 µM, a TGI (NCI-H23 lung) of over 53.8 µM and a GI50 (SF-295 CNS) of 3.44 µM. For the same compound, the TGI (SF-295 CNS) was 56.3 µM, the GI50 (HOP-62 NSCLC) was 4.77 µM and the TGI (HOP-62 NSCLC) was over 52.4 µM. The GI50 (HL-60(TB) leukemia) was 1.3 µM, the TGI (HL-60(TB) leukemia) was 11.7 µM and the GI50 (UO-31 renal) was 9.68 µM. For the same compound, the TGI (UO-31 renal) was over 100 µM, the GI50 (OVCAR-3 ovarian) was 2.26 µM and the TGI (OVCAR-3 ovarian) was 7.95 µM. It also gave a GI50 (SW-620 colon) of 1.73 µM, a TGI (SW-620 colon) of over 100 µM and a GI50 (OVCAR-8 ovarian) of 6.72 µM. It also gave a TGI (OVCAR-8 ovarian) of over 100 µM, a TGI (UACC-257 melanoma) of over 100 µM and a GI50 (HS 578T breast) of 13.7 µM. It also gave a TGI (HS 578T breast) of over 89.6 µM, a GI50 (TK-10 renal) of 20 µM and a TGI (TK-10 renal) of over 100 µM. The GI50 (SK-MEL-2 melanoma) was 1.02 µM, the TGI (SK-MEL-2 melanoma) was 6.28 µM and the GI50 (SF-539 CNS) was 3.29 µM. For the same compound, the TGI (SF-539 CNS) was 32.5 µM, the GI50 (MALME-3M melanoma) was 4.64 µM and the TGI (MALME-3M melanoma) was over 82.7 µM. It also gave a GI50 (SK-MEL-5 melanoma) of 2.02 µM, a TGI (SK-MEL-5 melanoma) of over 40.7 µM and a GI50 (COLO 205 colon) of 3.2 µM. For the same compound, the TGI (COLO 205 colon) was over 59.2 µM, the GI50 (OVCAR-4 ovarian) was over 100 µM and the TGI (OVCAR-4 ovarian) was over 100 µM. It also gave a GI50 (DU-145 prostate) of 6.73 µM, a TGI (DU-145 prostate) of over 100 µM and a GI50 (KM12 colon) of 0.905 µM. The TGI (KM12 colon) was over 100 µM, the GI50 (A498 renal) was 5.76 µM and the TGI (A498 renal) was 55.3 µM. For the same compound, the GI50 (U251 CNS) was 3.47 µM, the TGI (U251 CNS) was 24.9 µM and the GI50 (M14 melanoma) was 1.31 µM. The TGI (M14 melanoma) was 26.5 µM, the GI50 (SK-OV-3 ovarian) was 3.29 µM and the TGI (SK-OV-3 ovarian) was 34.7 µM. The GI50 (MCF7 breast) was 2.41 µM, the TGI (MCF7 breast) was over 64.2 µM and the GI50 (786-0 renal) was 8.54 µM. It also gave a TGI (786-0 renal) of over 100 µM, a GI50 (CCRF-CEM leukemia) of 1.71 µM and a TGI (CCRF-CEM leukemia) of over 47.5 µM. The GI50 (SF-268 CNS) was 8.28 µM, the TGI (SF-268 CNS) was over 89.3 µM and the GI50 (T-47D breast) was 4.04 µM. For the same compound, the TGI (T-47D breast) was over 100 µM, the GI50 (NCI-H522 lung) was 0.56 µM and the GI50 (OVCAR-5 ovarian) was over 43.7 µM. It also gave a TGI (OVCAR-5 ovarian) of over 96.6 µM, a GI50 (A549 NSCLC) of 4.7 µM and a TGI (A549 NSCLC) of over 100 µM. For the same compound, the GI50 (CAKI-1 renal) was 2.57 µM, the TGI (CAKI-1 renal) was over 100 µM and the GI50 (HCT-15 colon) was 1.42 µM. The TGI (HCT-15 colon) was over 100 µM, the GI50 (K-562 leukemia) was 0.43 µM and the TGI (K-562 leukemia) was over 100 µM. For the same compound, the GI50 (SK-MEL-28 melanoma) was 8.47 µM, the TGI (SK-MEL-28 melanoma) was over 100 µM and the GI50 (MOLT-4 leukemia) was 3.82 µM. The TGI (MOLT-4 leukemia) was over 100 µM, the GI50 (MDA-MB-435) was 0.367 µM and the TGI (MDA-MB-435) was 2.76 µM. The GI50 (SR leukemia) was 0.301 µM, the TGI (SR leukemia) was 2.21 µM and the GI50 (NCI-H460 lung) was 2.51 µM. For the same compound, the TGI (NCI-H460 lung) was over 33.8 µM, the GI50 (HCT-116 colon) was 3.82 µM and the TGI (HCT-116 colon) was over 73.3 µM. The GI50 (RXF 393 renal) was 2.58 µM and the TGI (RXF 393 renal) was 20.2 µM.
